Measurements from patent EP3722296B1, “DIHYDRONAPHTHYRIDINES AND RELATED COMPOUNDS USEFUL AS KINASE INHIBITORS FOR THE TREATMENT OF PROLIFERATIVE DISEASES” (Deciphera Pharmaceuticals, LLC, priority 2012, dated 2013).
pIC50: −log10 of the molar value.

What was measured:
c-KIT VVDV kinase = target: T1, c-KIT VVDV kinase (Homo sapiens, UniProt P10721, D816V/DEL559-560); assay: cKIT-VVDV kinase Assay; type: biochemical; settings: enzymatic assay; V559+V560 deletions and D816V mutation
T1 construct: This construct contains residues T544-V976 of cKit; GST (N); TEV cleavage site (internal); purchased deCODE Biostructures
T1 sequence (P10721 with tags, fused parts or gaps DEL559-560/D816V): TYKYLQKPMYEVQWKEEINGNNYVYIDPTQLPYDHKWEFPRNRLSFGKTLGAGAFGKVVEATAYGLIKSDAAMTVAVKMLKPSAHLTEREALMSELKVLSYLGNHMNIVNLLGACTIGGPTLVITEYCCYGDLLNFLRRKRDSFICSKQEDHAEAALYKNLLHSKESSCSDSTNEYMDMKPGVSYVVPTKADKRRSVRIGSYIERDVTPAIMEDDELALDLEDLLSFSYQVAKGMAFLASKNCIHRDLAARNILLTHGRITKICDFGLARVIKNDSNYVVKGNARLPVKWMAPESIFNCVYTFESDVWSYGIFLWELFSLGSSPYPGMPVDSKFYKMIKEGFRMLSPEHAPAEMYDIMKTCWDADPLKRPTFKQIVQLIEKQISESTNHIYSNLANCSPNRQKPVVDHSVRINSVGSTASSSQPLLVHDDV
Protocol: In this assay, the oxidation of NADH (measured by decrease in absorbance at 340 nm) was continuously monitored spectrophotometrically. […] The inhibition reaction was started by mixing serial diluted test compound with the above reaction mixture. The absorption at 340 nm was monitored continuously for 5 hours at 30 °C on Synergy 2 plate reader (BioTech). […] The protein construct was prepared by deCODE Biostructures using procedures known in the art. […] This construct is identical to Seq ID no.

GIST430 cells = assay: GIST 430 Cell Proliferation Assay; type: cell-based; settings: Homo sapiens, 120 h, 115 hours + 5 hours resazurin
Protocol: GIST48, GIST430, and GIST882 cells were obtained from J. Fletcher (Brigham and Women's Hospital, Boston, MA). GIST T1 cells were obtained from B. Rubin (Cleveland Clinic, Cleveland, OH) and Professor Takahiro Taguchi (Kochi Medical School, Nankoku, Kochi, Japan). Briefly, GIST48 and GIST 882 cells were grown in RPMI 1640 medium supplemented with 15% characterized fetal bovine serum (Invitrogen, Carlsbad, CA), 1 unit/mL penicillin G, 1 µg/ml streptomycin, and 0.29 mg/mL L-glutamine at 37 °C, 5% CO2, and 95% humidity. GIST430 cells were grown in Ham's F10 medium supplemented with 15% characterized fetal bovine serum (Invitrogen, Carlsbad, CA), 30 mg/L bovine pituitary extract (BD Biosciences, San Jose, CA), 0.5% Mito+ serum extender (BD Biosciences, San Jose, CA), 1 unit/mL penicillin G, 1 µg/ml streptomycin, and 0.29 mg/mL L-glutamine at 37 °C, 5%CO2, 95% humidity. GIST T1 cells were grown in DMEM medium supplemented with 10% characterized fetal bovine serum (Invitrogen, Carlsbad, CA), 1 unit/mL penicillin G, 1 µg/ml streptomycin, and 0.29 mg/mL L-glutamine at 37 °C, 5% CO2, and 95% humidity.
A serial dilution of test compound was dispensed into a 384-well black clear bottom plate (Corning, Corning, NY). Two thousand five-hundred cells were added per well in 50 µL complete growth medium. Plates were incubated for 115 hours at 37°C, 5% CO2, 95% humidity. At the end of the incubation period 10 µL of a 440 µM solution of resazurin (Sigma, St. Louis, MO) in PBS was added to each well and incubated for an additional 5 hours at 37°C, 5% CO2, 95% humidity. Plates were read on a Synergy2 reader (Biotek, Winooski, VT) using an excitation of 540 nm and an emission of 600 nm.

Compound	pIC50 (c-KIT VVDV kinase)	pIC50 (GIST430 cells)
CCn1c(=O)c(-c2cc(NC(=O)Nc3cccc(F)c3)c(F)cc2Br)cc2cnc(NC)cc21 [Example 50, 1-(4-bromo-5-(1-ethyl-7-(methylamino)-2-oxo-1,2-dihydro-1,6-naphthyridin-3-yl)-2-fluorophenyl)-3-(3-fluorophenyl)urea]	6.00 to 7.00	–
CCn1c(=O)c(-c2cc(NC(=O)Nc3cc(F)cc(F)c3)c(F)cc2C)cc2cnc(NC)cc21 [Example 60, 1-(3,5-difluorophenyl)-3-(5-(1-ethyl-7-(methylamino)-2-oxo-1,2-dihydro-1,6-naphthyridin-3-yl)-2-fluoro-4-methylphenyl)urea]	7.00 to 8.00	–
CCn1c(=O)c(-c2cc(NC(=O)Nc3cc(F)cc(F)c3)c(F)cc2Cl)cc2cnc(NC)cc21 [Example 55, 1-(4-chloro-5-(1-ethyl-7-(methylamino)-2-oxo-1,2-dihydro-1,6-naphthyridin-3-yl)-2-fluorophenyl)-3-(3,5-difluorophenyl)urea]	7.00 to 8.00	–
CCn1c(=O)c(-c2cc(NC(=O)Nc3cccc(F)c3)c(F)cc2C)cc2cnc(NC)cc21 [Example 44, 1-(5-(1-ethyl-7-(methylamino)-2-oxo-1,2-dihydro-1,6-naphthyridin-3-yl)-2-fluoro-4-methylphenyl)-3-(3-fluorophenyl)urea]	7.00 to 8.00	7.00 to 8.00
CCn1c(=O)c(-c2cc(NC(=O)Nc3ccccc3)c(F)cc2Cl)cc2cnc(NCCOC)cc21 [Example 27, 1-(4-chloro-5-(1-ethyl-7-(2-methoxyethylamino)-2-oxo-1,2-dihydro-1,6-naphthyridin-3-yl)-2-fluorophenyl)-3-phenylurea]	7.00 to 8.00	6.00 to 7.00
CCn1c(=O)c(-c2cc(NC(=O)Nc3cccc(F)c3)c(F)cc2Cl)cc2cnc(N)cc21 [Example 20, 1-(5-(7-amino-1-ethyl-2-oxo-1,2-dihydro-1,6-naphthyridin-3-yl)-4-chloro-2-fluorophenyl)-3-(3-fluorophenyl)urea]	> 8.00	–
CCn1c(=O)c(-c2cc(NC(=O)Nc3cccc(F)c3)c(F)cc2Cl)cc2cnc(NCCOC)cc21 [Example 28, 1-(4-chloro-5-(1-ethyl-7-(2-methoxyethylamino)-2-oxo-1,2-dihydro-1,6-naphthyridin-3-yl)-2-fluorophenyl)-3-(3-fluorophenyl)urea]	7.00 to 8.00	–
CCn1c(=O)c(-c2cc(NC(=O)Nc3ccccc3)c(F)cc2Br)cc2cnc(NCCOC)cc21 [Example 51, 1-(4-bromo-5-(1-ethyl-7-(2-methoxyethylamino)-2-oxo-1,2-dihydro-1,6-naphthyridin-3-yl)-2-fluorophenyl)-3-phenylurea]	6.00 to 7.00	–
CCn1c(=O)c(-c2cc(NC(=O)Nc3cc(F)ccc3F)c(F)cc2C)cc2cnc(NC)cc21 [Example 61, 1-(2,5-difluorophenyl)-3-(5-(1-ethyl-7-(methylamino)-2-oxo-1,2-dihydro-1,6-naphthyridin-3-yl)-2-fluoro-4-methylphenyl)urea]	> 8.00	–

More lines, main results first:

pIC50 (c-KIT VVDV kinase)	Compound	pIC50 (GIST430 cells)
> 8.00	CCn1c(=O)c(-c2cc(NC(=O)Nc3cccc(F)c3F)c(F)cc2Cl)cc2cnc(NC)cc21 [Example 4, 1-(4-chloro-5-(1-ethyl-7-(methylamino)-2-oxo-1,2-dihydro-1,6-naphthyridin-3-yl)-2-fluorophenyl)-3-(2,3-difluorophenyl)urea]	–
> 8.00	CNc1cc2c(cn1)cc(-c1cc(NC(=O)Nc3ccccc3)c(F)cc1Cl)c(=O)n2C(C)C [Example 22, 1-(4-chloro-2-fluoro-5-(1-isopropyl-7-(methylamino)-2-oxo-1,2-dihydro-1,6-naphthyridin-3-yl)phenyl)-3-phenylurea]	–
> 8.00	CCn1c(=O)c(-c2cc(NC(=O)Nc3ccccc3)c(F)cc2Cl)cc2cnc(NC(C)=O)cc21 [Example 54, 1-(5-(7-acetamido-1-ethyl-2-oxo-1,2-dihydro-1,6-naphthyridin-3-yl)-4-chloro-2-fluorophenyl)-3-phenylurea]	–
> 8.00	CCn1c(=O)c(-c2cc(NC(=O)Nc3ccccc3)c(F)cc2Cl)cc2cnc(NC(=O)OC)cc21 [Example 73, methyl (3-(2-chloro-4-fluoro-5-(3-phenylureido)phenyl)-1-ethyl-2-oxo-1,2-dihydro-1,6-naphthyridin-7-yl)carbamate]	–
> 8.00	CCn1c(=O)c(-c2cc(NC(=O)Nc3ccccc3F)c(F)cc2Cl)cc2cnc(NC)cc21 [Example 25, 1-[4-chloro-5-(1-ethyl-7-methylamino-2-oxo-1,2-dihydro-[1,6]naphthyridin-3-yl)-2-fluoro-phenyl]-3-(2-fluoro-phenyl)-urea]	–
> 8.00	CCn1c(=O)c(-c2cc(NC(=O)Nc3cccc4ccccc34)c(F)cc2Cl)cc2cnc(NC)cc21 [Example 6, 1-(4-chloro-5-(1-ethyl-7-(methylamino)-2-oxo-1,2-dihydro-1,6-naphthyridin-3-yl)-2-fluorophenyl)-3-(naphthalen-1-yl)urea]	–
> 8.00	CCn1c(=O)c(-c2cc(NC(=O)Nc3csc4ccccc34)c(F)cc2Cl)cc2cnc(NC)cc21 [Example 32, 1-(benzo[b]thiophen-3-yl)-3-(4-chloro-5-(1-ethyl-7-(methylamino)-2-oxo-1,2-dihydro-1,6-naphthyridin-3-yl)-2-fluorophenyl)urea]	7.00 to 8.00
> 8.00	CCn1c(=O)c(-c2cc(NC(=O)Nc3ccccc3)c(F)cc2Cl)cc2cnc(NC(=O)N(C)C)cc21 [Example 70, 3-(3-(2-chloro-4-fluoro-5-(3-phenylureido)phenyl)-1-ethyl-2-oxo-1,2-dihydro-1,6-naphthyridin-7-yl)-1,1-dimethylurea]	–
> 8.00	CCn1c(=O)c(-c2cc(NC(=O)Nc3cccc(F)c3)c(F)cc2Cl)cc2cnc(NC)cc21 [Example 24, 1-[4-chloro-5-(1-ethyl-7-methylamino-2-oxo-1,2-dihydro-[1,6]naphthyridin-3-yl)-2-fluoro-phenyl]-3-(3-fluoro-phenyl)-urea]	–
> 8.00	CCn1c(=O)c(-c2cc(NC(=O)Nc3ccccc3)c(F)cc2Cl)cc2cnc(NC)cc21 [Example 3, 1-(4-chloro-5-(1-ethyl-7-(methylamino)-2-oxo-1,2-dihydro-1,6-naphthyridin-3-yl)-2-fluorophenyl)-3-phenylurea]	7.00 to 8.00
